{"source": "patent US8883763B2", "about": "(Universite Joseph Fourier, priority 2010, dated 2014)", "key": {"HeLa cells": {"tested_on": "HeLa cells", "test": "Indirect immunofluorescence: effect on HeLa cells (mitotic arrest, microtubule depolymerization)", "type": "cell-based, human", "design": "key to Effect on Hela at 25 μM / Effect on Hela at 100 μM / Effect on Hela at 50 and 100 μM / Effect on Hela at 50 μM: —: −: no activity on the cells at 25 μM (if there is an effect at high concentrations, this is specified in the table).; *: weak activity (MA and/or slight depolymerization of the MTs and/or slight inhibition of proliferation),; **: average activity (MA and/or moderate depolymerization of the MTs and/or moderate inhibition of proliferation),; ***: strong activity (MA and/or pronounced depolymerization of the MTs and/or pronounced inhibition of proliferation),; ****: very strong activity (MA and/or very pronounced depolymerization of the MTs and/or strong inhibition of proliferation)", "method_in_brief": "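HeLa cells exposed 24 h to compound (100 μM to 50 nM; primary series 1–10 μM), DMSO controls. PFA/glutaraldehyde-fixed cells immunostained for α-tubulin, actin (phalloidin) and DNA (Hoechst); fluorescence microscopy scored phenotypes and mitotic index, with mitotic index and/or MT depolymerization evaluated at 25 μM.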"}, "[1]": {"tested_on": "primary human fibroblasts", "test": "Indirect immunofluorescence on primary human fibroblasts", "type": "cell-based", "settings": "5 and 10 μM for 24 hours", "experimental": "Primary human fibroblasts (PHFs) were prepared from newborn foreskins as described in (Nahm W K et al., J Dermatol Sci. 2002, 28(2): pp 152-8).\nThe cells were cultured on slides in 24-well plates and incubated for 24 hours with molecule 6 at different concentrations from 1 to 10 μM.\nCorresponding quantities of DMSO were added to the culture medium in the control wells.\nThe cells were fixed in a solution of PBS with 4% paraformaldehyde (PFA) and 0.1% glutaraldehyde (GA), for 15 minutes and centrifuged at 300 g for the last 10 minutes of the fixing. The slides were rinsed in PBS and the free aldehyde groups were reduced by two successive 5-minute incubations in PBS containing 1 mg/ml of NaBH4.\nAfter one washing with PBS then another with PBST (PBS with 0.5% triton-X-100), the cells are incubated for 30 minutes at ambient temperature with anti α-tubulin monoclonal antibody solution (DM1A clone, Sigma # T6199) diluted to 1:200 in PBST. […] After 3 10-minute washings in PBST, the slides are mounted on plates in Fluorsave™ mounting medium (Calbiochem #345789) and are observed and analyzed using an Axiovert 200M inverted fluorescence microscope (Zeiss®). […]"}, "[2]": {"tested_on": "human tumours (HTB-177: pulmonary carcinoma) xenografted onto nude mice", "test": "HTB-177 tumour xenograft in nude mice, necrosis and histology", "type": "in vivo", "experimental": "All the animal experiments were carried out according to the recommendations of the local ethics commmittee. Nude mice (NCr-nu/nu females (Harlan Laboratories), were housed in a room with filtered air at 22° C., alternating 12 hours of day and 12 hours of night.\nHTB177 cells (1×10^6) were implanted sub-cutaneously in the flanks of the mice. The tumour growth was monitored twice weekly by measuring the size of the tumours with a slide caliper, thus making it possible to estimate the volume of the tumour, calculated in mm^3 according to the following formula: length×width×height×π/6.\nTreatment commenced when the tumours reached a size of approximately 250 mm^3. The weight of the animal, the volume of the tumour and the extension of the necroses were measured twice weekly.\nThe animals were sacrificed when the tumour reached 2000 mm^3 or sooner if a clinical sign of suffering, defined by the ethics committee, was observed.\nThe mice received compound 6 per os in doses and at intervals described in the captions to the figures. The control mice received the vehicle alone (identical volume of beta-cyclodextrin at 60 mg/ml))\nAfter euthanasia of the animals, the tumours were removed, cut sagittally along the median line, frozen rapidly in nitrogen liquid and stored at −80° C. […]"}}, "data": [{"smiles": "COc1ccc(-c2[nH]c(=O)c3cc(OC)ccc3c2[N+](=O)[O-])cc1", "note": "[Compound 6, 7-methoxy-3-(4-methoxyphenyl)-4-nitroisoquinoline-1(2H)-one]", "values": [{"measurement": "Effect on Hela at 25 μM", "setting": "HeLa cells; 25 μM, 24 hours, mitotic index and/or depolymerization of the MTs", "value": "****"}, {"measurement": "phenotype on microtubules and actin cytoskeleton, HeLa cells in interphase", "setting": "HeLa cells; 1 and 10 μM for 24 hours", "value": "depolymerization of the microtubules and a reorganization of the actin cytoskeleton"}, {"measurement": "phenotype on microtubules and actin cytoskeleton, HeLa cells in mitosis", "setting": "HeLa cells; 1 and 10 μM for 24 hours", "value": "depolymerization of the spindle microtubules and actin blebbing at the level of the cortex"}, {"measurement": "phenotype on microtubules and actin cytoskeleton, primary human fibroblasts in interphase", "setting": "[1]", "value": "depolymerization of the microtubules and a reorganization of the actin cytoskeleton"}, {"measurement": "phenotype on microtubules and actin cytoskeleton, primary human fibroblasts in mitosis", "setting": "[1]", "value": "depolymerization of the spindle microtubules and the formation of ectopic furrows"}, {"measurement": "tumour necrosis (macroscopic)", "setting": "[2]; 40 mg/kg twice weekly per os, after one cycle of administration (day 7)", "value": "central necrosis"}, {"measurement": "necrosis on H&E-stained tumour sections", "setting": "[2]; 48 hours after administration of 40 mg/kg", "value": "extensive areas of necrosis"}]}]}
